Patent US4988699A, “Substituted tetrahydrobenzothiazoles as dopaminergic agents” (Warner-Lambert Company, priority 1989, dated 1991)
Like-named read-outs stand apart in the source and are kept apart here.

Legend:
[1] = molecular target: T1, haloperidol binding in a receptor assay (Bos taurus, UniProt P20288); experiment: Inhibition of haloperidol binding
T1 construct: from tissue; host or cells: calf brain (caudate/striatal) membranes, inferred from the cited method
Experimental: (§1) The compounds of Formula I are valuable dopaminergic agents. […] Thus, the compounds of Formula I were tested for their ability to inhibit locomotor activity in mice according to the assay described by J. R. McLean, et al, Pharmacology, Biochemistry and Behavior, Volume 8, pages 97-99 (1978); for their ability to inhibit haloperidol binding in a receptor assay described by D. R. Burt, et al, Molecular Pharmacology, Volume 12, pages 800-812 (1976); and for their ability to inhibit dopamine synthesis in rats according to the protocol described by J. R. Walters and R. H. Roth, Naunyn--Schmiedeberg's Archives of Pharmacology, Volume 296, pages 5-14 (1976). The above test methods are incorporated herein by reference.

[2] = tested on: locomotor activity in mice; experiment: Inhibition of locomotor activity in mice; assay type: in vivo; conditions: for ED50: Mus musculus, ip, read-out: Inhibition of Locomotor Activity in Mice ED50
Experimental: as §1

[3] = tested on: dopamine synthesis in rats; experiment: Inhibition of dopamine synthesis in rats; assay type: in vivo; conditions: IP
Experimental: as §1

T1 sequence (P20288 whole entry): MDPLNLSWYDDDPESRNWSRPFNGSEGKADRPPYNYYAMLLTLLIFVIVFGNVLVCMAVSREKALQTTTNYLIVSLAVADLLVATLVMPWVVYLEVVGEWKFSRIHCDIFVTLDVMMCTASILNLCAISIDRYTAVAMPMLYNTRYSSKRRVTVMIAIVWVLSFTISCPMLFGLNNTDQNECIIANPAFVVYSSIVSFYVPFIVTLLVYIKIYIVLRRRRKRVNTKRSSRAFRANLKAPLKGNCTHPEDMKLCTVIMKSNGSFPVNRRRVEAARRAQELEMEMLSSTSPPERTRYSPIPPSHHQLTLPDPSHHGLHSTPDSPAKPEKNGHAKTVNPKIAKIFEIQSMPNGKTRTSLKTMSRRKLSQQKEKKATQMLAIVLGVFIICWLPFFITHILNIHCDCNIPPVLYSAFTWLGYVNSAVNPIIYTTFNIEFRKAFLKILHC

Nc1nc2c(s1)CC(N1CCN(c3ccccn3)CC1)CC2 (racemic) [Example 1, (±)-4,5,6,7-Tetrahydro-6-[4-(2-pyridinyl)-1-piperazinyl]-2-benzothiazolamine]
IC50 [1]: 876 nM | ED50 ([2]; mice, IP): 6.6 mg/kg | Inhibition of Dopamine Synthesis in Rats ([3]; at 4.4 mg/kg): 50%

Nc1nc2c(s1)CC(N1CC=C(c3ccccc3)CC1)CC2 (racemic) [Example 1a, (±)-6-(3,6-Dihydro-4-phenyl-1(2H)-pyridinyl)-4,5,6,7-tetrahydro-2-benzothiazolamine]
ED50 [2]: 1.5 mg/kg | Inhibition of Dopamine Synthesis in Rats ([3]; at 10 mg/kg): 69%

Nc1nc2c(s1)CC(N1CCN(c3ccccc3)CC1)CC2 (racemic) [Example 1b, (±)-4,5,6,7-Tetrahydro-6-(4-phenyl-1-piperazinyl)-2-benzothiazolamine]
ED50 ([2]; mice, IP): 6.1 mg/kg

Nc1nc2c(s1)CC(N1CCN(c3ncccn3)CC1)CC2 (racemic) [Example 1c, (±)-4,5,6,7-Tetrahydro-6-[4-(2-pyrimidinyl)-1-piperazinyl]-2-benzothiazolamine]
ED50 ([2]; mice, IP): 30 mg/kg

O=C(Nc1nc2c(s1)CC(N1CCN(c3ccccn3)CC1)CC2)c1ccccc1 (racemic) [Example 2, (±)-N-[4,5,6,7-Tetrahydro-6-[4-(2-pyridinyl)-1-piperazinyl]-2-benzothiazolyl]benzamide]
ED50 ([2]; mice, IP): 3.7 mg/kg | Inhibition of Dopamine Synthesis in Rats ([3]; at 10 mg/kg): 59%

c1ccc(N2CCN(CC3CCc4ncsc4C3)CC2)nc1 (racemic) [Example 5, (±)-4,5,6,7-tetrahydro-6-[[4-(2-pyridinyl)-1-piperazinyl]methyl]benzothiazole]
ED50 ([2]; mice, IP): 7.4 mg/kg

Nc1nc2c(s1)CC(CN1CCN(c3ccccn3)CC1)CC2 (racemic) [Example 7, (±)-4,5,6,7-Tetrahydro-6-[[4-(2-pyridinyl)-1-piperazinyl]methyl]-2-benzothiazolamine]
ED50 ([2]; mice, IP): 7.2 mg/kg | Inhibition of Dopamine Synthesis in Rats ([3]; at 10 mg/kg): 48%

Nc1nc2c(s1)CC(CN1CC=C(c3ccccc3)CC1)CC2 (racemic) [Example 8, (±)-6-[(3,6-Dihydro-4-phenyl-1(2H)-pyridinyl)methyl]-4,5,6,7-tetrahydro-2-benzothiazolamine]
ED50 [2]: 0.75 mg/kg

Nc1nc2c(s1)CC(CCN1CCN(c3ccccn3)CC1)CC2 (racemic) [Example 9, (±)-4,5,6,7-Tetrahydro-6-[2-[4-(2-pyridinyl)-1-piperazinyl]ethyl]-2-benzothiazolamine]
IC50 [1]: 105 nM | ED50 ([2]; mice, IP): 0.21 mg/kg | Inhibition of Dopamine Synthesis in Rats ([3]; at 1.3 mg/kg): 50%

Nc1nc2c(s1)CC(CCN1CC=C(c3ccccc3)CC1)CC2 (racemic) [Example 10, (±)-6-[2-(3,6-Dihydro-4-phenyl-1(2H)-pyridinyl)ethyl]-4,5,6,7-tetrahydro-2-benzothiazolamine]
ED50 [2]: 0.4 mg/kg

Nc1nc2c(s1)CC(N1CCN(c3ccccn3)CC1)CC2 (single isomer, unassigned; (+)) [Example 3, (+)-4,5,6,7-Tetrahydro-6-[4-(2-pyridinyl)-1-piperazinyl]-2-benzothiazolamine]
IC50 [1]: ~800 nM | ED50 ([2]; mice, IP): 9.9 mg/kg | Inhibition of Dopamine Synthesis in Rats ([3]; at 7.0 mg/kg): 50%

Nc1nc2c(s1)CC(CCN1CCN(c3ccccn3)CC1)CC2 (single isomer, unassigned; (+)) [Example 11, (+)-4,5,6,7-Tetrahydro-6-[2-[4-(2-pyridinyl)-1-piperazinyl]ethyl]-2-benzothiazolamine]
Inhibition of Locomotor Activity in Mice ED50 ([2]; mice, IP): 0.37 mg/kg | Inhibition of Dopamine Synthesis in Rats ([3]; at 0.8 mg/kg): 50%

Nc1nc2c(s1)CC(N1CCN(c3ccccn3)CC1)CC2 (single isomer, unassigned; (-)) [Example 4, (-)-4,5,6,7-Tetrahydro-6-[4-(2-pyridinyl)-1-piperazinyl]-2-benzothiazolamine]
IC50 [1]: ~1500 nM | Inhibition of Locomotor Activity in Mice ED50 ([2]; mice, IP): 7.4 mg/kg | Inhibition of Dopamine Synthesis in Rats ([3]; at 4.8 mg/kg): 50%

Nc1nc2c(s1)CC(CCN1CCN(c3ccccn3)CC1)CC2 (single isomer, unassigned; (-)) [Example 11a, (-)-4,5,6,7-Tetrahydro-6-[2-[4-(2-pyridinyl)-1-piperazinyl]ethyl]-2-benzothiazolamine]
ED50 ([2]; mice, IP): 0.2 mg/kg | Inhibition of Dopamine Synthesis in Rats ([3]; at 0.2 mg/kg): 50%
